Measured values from patent US4853230A, “Pharmaceutical formulations of acid labile substances for oral use” (priority 1986, dated 1989).

Assay: Rate of degradation/transformation of compounds in solution (half-life for the transformation to the active moiety) at pH 2 and 7
Format: physicochemical
Conditions: water solution
Experimental: Rate of degradation/transformation of compounds
Half-life (mintues) for the
transformation to the active moiety
Also at neutral pH-values the degradation reaction proceeds rapidly, e.g. at pH=7 the half-life of degradation is between 10 minutes and 65 hours while at higher pH-values the stability in solution for most compounds is much better. The stability profile is similar in solid phase. The degradation is catalyzed by acid reacting substances. The acid labile compounds are stabilized in mixtures with alkaline reacting substances.

half-life (at pH = 2) [min]	half-life (at pH = 7) [min]	Structure (SMILES)
11	150	COC(=O)c1cc2nc([S+]([O-])Cc3ncccc3C)[nH]c2cc1C (centres unmarked)
1.9	122	COc1ccnc(C[S+]([O-])c2nc3cc(C(F)(F)F)ccc3[nH]2)c1 (centres unmarked)
3.7	1620	CCc1cnc(C[S+]([O-])c2nc3cc(OC)ccc3[nH]2)cc1Oc1ccccc1 (centres unmarked)

The remaining lines, values behind:

Structure (SMILES)	half-life (at pH = 2) [min]	half-life (at pH = 7) [min]
Cc1cnc(C[S+]([O-])c2nc3cc(C)ccc3[nH]2)c(C)c1 (centres unmarked)	5.4	1700
COc1ccnc(C[S+]([O-])c2nc3cc(C(F)(F)F)ccc3[nH]2)c1C (centres unmarked)	2	8.8
CCc1ccc2[nH]c([S+]([O-])Cc3nc4ccccc4n3C)nc2c1 (centres unmarked)	33	–
